Reference: patent US20050197350A1, “Novel quinoline, tetrahydroquinazoline, and pyrimidine derivatives and methods of treatment related to the use thereof” (TAISHO PHARMACEUTICAL CO., LTD., priority 2003, published 2005)
Counter-ions that a name gives are not always drawn.

Each compound was assayed against MCH receptor (Homo sapiens, UniProt Q99705) (assay: High throughput functional screening FLIPR/FDSS6000 (intracellular Ca2+ evoked by MCH)). Settings: FLIPR/FDSS, antagonist activity vs 50 nM MCH; class by percent of control at 10^−7 M or IC50; read-out: class.
Assay type: cell-based
How it was run: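 For antagonist testing, compound-treated cells (30 min, 37 °C) were stimulated with 50 nM MCH and intracellular Ca2+ followed by Fluo4 fluorescence on FLIPR/FDSS6000. Receptor was a constitutively active, non-endogenous MCH receptor; dye loading 4 μM Fluo4-AM, 1 h, 37 °C.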

IC50 [nM]	Structure (SMILES)
> 200	Cc1cnc(N[C@H]2CC[C@@H](NC(=O)Nc3c(Cl)cccc3C(F)(F)F)CC2)nc1N(C)C [Example 3344, N-[2-chloro-6-(trifluoromethyl)phenyl]-N′-(cis-4-{[4-(dimethylamino)-5-methylpyrimidin-2-yl]amino}cyclohexyl)urea]
> 200	Cc1cnc(N[C@H]2CC[C@@H](NCC(=O)c3ccc(Br)cc3)CC2)nc1N(C)C [Example 3262, 1-(4-bromophenyl)-2-[(cis-4-{[4-(dimethylamino)-5-methylpyrimidin-2-yl]amino}cyclohexyl)amino]ethanone]
50 to 200	COc1ccccc1NC(=O)N[C@H]1CC[C@@H](Nc2ncc(C)c(N(C)C)n2)CC1 [Example 3321, N-(cis-4-{[4-(dimethylamino)-5-methylpyrimidin-2-yl]amino}cyclohexyl)-N′-(2-methoxyphenyl)urea]
< 50	Cc1cc(N[C@H]2CC[C@@H](C(=O)N[C@@H](C)c3ccccc3C(F)(F)F)CC2)nc2ccccc12 [Example 3314, cis-4-[(4-methylquinolin-2-yl)amino]-N-{(1S)-1-[2-(trifluoromethyl)phenyl]ethyl}cyclohexanecarboxamide]
< 50	Cc1cnc(N[C@H]2CC[C@@H](C(=O)N[C@@H](C)c3ccc(OC(F)(F)F)cc3)CC2)nc1N(C)C [Example 3302, cis-4-{[4-(dimethylamino)-5-methylpyrimidin-2-yl]amino}-N-{(1S)-1-[4-(trifluoromethoxy)phenyl]ethyl}-cyclohexanecarboxamide]
50 to 200	Cc1cnc(N[C@H]2CC[C@@H](NC(=O)Nc3ccccc3F)CC2)nc1N(C)C [Example 3324, N-(cis-4-{[4-(dimethylamino)-5-methylpyrimidin-2-yl]amino}cyclohexyl)-N′-(2-fluorophenyl)urea]
> 200	Cc1cc(N(C)C)nc(N[C@H]2CC[C@@H](C(=O)NC(C)(C)c3ccc(Cl)cc3)CC2)n1 [Example 3274, cis-N-[1-(4-chlorophenyl)-1-methylethyl]-4-{[4-(dimethylamino)-6-methylpyrimidin-2-yl]amino}cyclohexanecarboxamide]
50 to 200	Cc1cnc(N[C@H]2CC[C@@H](NC(=O)c3cccnc3S(=O)(=O)c3cccc(Br)c3)CC2)nc1N(C)C [Example 3285, 2-[(3-bromophenyl)sulfonyl]-N-(cis-4-{[4-(dimethylamino)-5-methylpyrimidin-2-yl]amino}cyclohexyl)nicotinamide]
< 50	Cc1cnc(N[C@H]2CC[C@@H](NC(=O)c3cccnc3S(=O)(=O)c3ccc(F)cc3)CC2)nc1N(C)C [Example 3281, N-(cis-4-{[4-(dimethylamino)-5-methylpyrimidin-2-yl]amino}cyclohexyl)-2-[(4-fluorophenyl)sulfonyl]nicotinamide]
< 50	CCN(C(=O)N[C@H]1CC[C@@H](Nc2ncc(C)c(N(C)C)n2)CC1)c1ccccc1 [Example 3350, N′-(cis-4-{[4-(dimethylamino)-5-methylpyrimidin-2-yl]amino}cyclohexyl)-N-ethyl-N-phenylurea]
< 50	Cc1cnc(NC2CCC(C(=O)N[C@@H](C)c3ccccc3C(F)(F)F)CC2)nc1N(C)C (stereo partly drawn) [Example 3300, 4-{[4-(dimethylamino)-5-methylpyrimidin-2-yl]amino}-N-{(1S)-1-[2-(trifluoromethyl)phenyl]ethyl}cyclohexanecarboxamide]
50 to 200	Cc1cnc(N[C@H]2CC[C@@H](C(=O)NC(C)(C)c3ccc(Cl)cc3)CC2)nc1N(C)C [Example 3273, cis-N-[1-(4-chlorophenyl)-1-methylethyl]-4-{[4-(dimethylamino)-5-methylpyrimidin-2-yl]amino}cyclohexanecarboxamide]

Same assay, conditions: FLIPR/FDSS, antagonist activity vs 50 nM MCH; class by percent of control at 10^−7 M or IC50; table after the classification; read-out: class

Structure (SMILES)	IC50 [nM]
Cc1cc(N[C@H]2CC[C@@H](NC(=O)c3ccc(F)cc3F)CC2)nc2ccccc12 [Example 3163, 2,4-Difluoro-N-[cis-4-(4-methyl-quinolin-2-ylamino)-cyclohexyl]-benzamide hydrochloride]	< 50
Cc1cc(N[C@H]2CC[C@@H](NC(=O)Nc3cccc(Cl)c3Cl)CC2)nc2ccccc12 [Example 3072, 1-(2,3-Dichloro-phenyl)-3-[cis-4-(4-methyl-quinolin-2-ylamino)-cyclohexyl]-urea hydrochloride]	< 50
O=C(N[C@H]1CC[C@@H](Nc2ccc3ccccc3n2)CC1)c1cccc(Br)c1 [Example 3047, 3-Bromo-N-[cis-4-(quinolin-2-ylamino)-cyclohexyl]-benzamide hydrochloride]	< 50
CN(C)c1nc(N[C@H]2CC[C@@H](NC(=O)c3cccnc3Oc3ccccc3)CC2)ncc1F [Example 3140, N-[cis-4-(4-Dimethylamino-5-fluoro-pyrimidin-2-ylamino)-cyclohexyl]-2-phenoxy-nicotinamide hydrochloride]	50 to 200
CN(C)c1nc(N[C@H]2CC[C@@H](NC(=O)c3csc([N+](=O)[O-])c3)CC2)nc2c1CCCC2 [Example 3193, 5-Nitro-thiophene-3-carboxylic acid [cis-4-(4-dimethylamino-5,6,7,8-tetrahydro-quinazolin-2-ylamino)-cyclohexyl]-amide hydrochloride]	< 50
Cc1cc(N[C@H]2CC[C@@H](NC(=O)c3ccc(Cl)c(Cl)c3)CC2)nc2ccccc12 [Example 3078, 3,4-Dichloro-N-[cis-4-(4-methyl-quinolin-2-ylamino)-cyclohexyl]-benzamide hydrochloride]	< 50
CN(C)c1cc(N[C@H]2CC[C@@H](CNC(=O)c3ccc(F)c(F)c3)CC2)nc2ccccc12 [Example 3190, N-[cis-4-(4-Dimethylamino-quinolin-2-ylamino)-cyclohexylmethyl]-3,4-difluoro-benzamide hydrochloride]	50 to 200
Cc1cc(N[C@H]2CC[C@@H](NC(=O)c3ccc(F)cc3)CC2)nc2ccccc12 [Example 3169, 4-Fluoro-N-[cis-4-(4-methyl-quinolin-2-ylamino)-cyclohexyl]-benzamide hydrochloride]	< 50
CCN(CC(=O)N[C@H]1CC[C@@H](Nc2ccc3ccccc3n2)CC1)c1ccc(Cl)cc1 [Example 3154, C-[(4-Chloro-phenyl)-ethyl-amino]-N-[cis-4-(quinolin-2-ylamino)-cyclohexyl]-acetamide dihydrochloride]	< 50
CN(C)c1nc(N[C@H]2CC[C@@H](NC(=O)c3cccnc3Oc3ccccc3)CC2)ncc1Br [Example 3141, N-[cis-4-(5-Bromo-4-dimethylamino-pyrimidin-2-ylamino)-cyclohexyl]-2-phenoxy-nicotinamide hydrochloride]	50 to 200
CNc1cc(N[C@H]2CC[C@@H](NCc3ccc(Br)cc3OC(F)(F)F)CC2)nc2ccccc12 [Example 1, N^2-[cis-4-(4-Bromo-2-triflouromethoxy-benzyl)-amino-cyclohexyl]-N^4-methyl-quinoline-2,4-diamine dihydrochloride]	50 to 200
O=C(N[C@H]1CC[C@@H](Nc2ccc3ccccc3n2)CC1)c1ccc(-c2ccc(Cl)cc2)o1 [Example 3044, 5-(4-Chloro-phenyl)-furan-2-carboxylic acid [cis-4-(quinolin-2-ylamino)-cyclohexyl]-amide hydrochloride]	50 to 200
Cc1cc(N[C@H]2CC[C@@H](NC(=O)c3cc(F)cc(Cl)c3)CC2)nc2ccccc12 [Example 3179, 3-Chloro-5-fluoro-N-[cis-4-(4-methyl-quinolin-2-ylamino)-cyclohexyl]-benzamide hydrochloride]	< 50
Cc1cc(N[C@H]2CC[C@@H](NC(=O)c3cccc(Cl)c3)CC2)nc2ccccc12 [Example 3073, 3-Chloro-N-[cis-4-(4-methyl-quinolin-2-ylamino)-cyclohexyl]-benzamide hydrochloride]	< 50
CN(C)c1ccnc(N[C@H]2CC[C@@H](NC(=O)c3cc(Cl)ccn3)CC2)n1 [Example 3213, 4-Chloro-pyridine-2-carboxylic acid [cis-4-(4-dimethylamino-pyrimidin-2-ylamino)-cyclohexyl]-amide hydrochloride]	> 200
O=C(N[C@H]1CC[C@@H](Nc2ccc3ccccc3n2)CC1)c1cccc(Cl)c1 [Example 3035, 3-Chloro-N-[cis-4-(quinolin-2-ylamino)-cyclohexyl]-benzamide hydrochloride]	< 50

Other lines, results leading:

IC50 [nM]	Structure (SMILES)
< 50	Cc1cc(N(C)C)nc(N[C@H]2CC[C@@H](NC(=O)c3cc(F)c(F)c(F)c3)CC2)n1 [Example 3385, N-[cis-4-(4-Dimethylamino-6-methyl-pyrimidin-2-ylamino)-cyclohexyl]-3,4,5-trifluoro-benzamide hydrochloride]
> 200	CNc1ccnc(N[C@H]2CC[C@@H](NC(=O)c3ccc(F)c(F)c3)CC2)n1 [Example 3223, 3,4-Difluoro-N-[cis-4-(4-methylamino-pyrimidin-2-ylamino)-cyclohexyl]-benzamide-hydrochloride]
50 to 200	CN(C)c1cc(N(C)C)nc(N[C@H]2CC[C@@H](NC(=O)c3ccc(F)c(F)c3)CC2)n1 [Example 3232, N-[cis-4-(4,6-Bis-dimethylamino-pyrimidin-2-ylamino)-cyclohexyl]-3,4-difluoro-benzamide hydrochloride]
< 50	CNc1nc(N[C@H]2CC[C@@H](NC(=O)c3ccc(F)c(Cl)c3)CC2)ncc1C [Example 3386, 3-Chloro-4-fluoro-N-[cis-4-(5-methyl-4-methylamino-pyrimidin-2-ylamino)-cyclohexyl]-benzamide hydrochloride]
< 50	CN(C)c1nc(N[C@H]2CC[C@@H](NC(=O)c3ccc(F)c(Cl)c3)CC2)ncc1F [Example 3229, 3-Chloro-N-[cis-4-(4-dimethylamino-5-fluoro-pyrimidin-2-ylamino)-cyclohexyl]-4-fluoro-benzamide hydrochloride]
